What all share (type): functional
Assay [1] concerns Klebsiella pneumoniae. As to the kind of experiment: Antibacterial activity against Carbapenem-resistant Klebsiella pneumoniae FADD1-KP065 clinical isolates assessed as reduction in bacterial growth by broth microdilution method. Background: Dilution methods test growth across graded concentrations, often in twofold steps.
Assay [2] relates to Enterobacter cloacae. As to the kind of experiment: Antibacterial activity against polymyxin-susceptible Enterobacter cloacae FADD1-EC003 clinical isolates assessed as reduction in bacterial growth by broth microdilution method.
Assay [3] deals with Pseudomonas aeruginosa. As to the kind of experiment: Antibacterial activity against Carbapenem-resistant Pseudomonas aeruginosa FADD1-PA022 clinical isolates assessed as reduction in bacterial growth by broth microdilution method.
Assay [4] relates to Klebsiella pneumoniae. The experiment in a line: Antibacterial activity against Carbapenem-resistant Klebsiella pneumoniae FADD1-KP032 clinical isolates assessed as reduction in bacterial growth by broth microdilution method.
Assay [5] concerns Pseudomonas aeruginosa. The experiment in a line: Antibacterial activity against polymyxin-susceptible Pseudomonas aeruginosa FADD1-PA038 clinical isolates assessed as reduction in bacterial growth by broth microdilution method.
In assay [6] the test system is Acinetobacter baumannii. The experiment in a line: Antibacterial activity against Carbapenem-resistant Acinetobacter baumannii FADD1-AB030 clinical isolates assessed as reduction in bacterial growth by broth microdilution method.
In assay [7] the test system is Enterobacter cloacae. The experiment in a line: Antibacterial activity against polymyxin-susceptible Enterobacter cloacae FADD1-EC001 clinical isolates assessed as reduction in bacterial growth by broth microdilution method.
Assay [8] has as its system Klebsiella pneumoniae. The experiment in a line: Antibacterial activity against Carbapenem-resistant Klebsiella pneumoniae BM1 clinical isolates assessed as reduction in bacterial growth by broth microdilution method.
Assay [9] deals with Acinetobacter baumannii. As to the kind of experiment: Antibacterial activity against Carbapenem-resistant Acinetobacter baumannii FADD1-AB034 clinical isolates assessed as reduction in bacterial growth by broth microdilution method.
Assay [10] concerns Pseudomonas aeruginosa. As to the kind of experiment: Antibacterial activity against Carbapenem-resistant Pseudomonas aeruginosa FADD1-PA001 clinical isolates assessed as reduction in bacterial growth by broth microdilution method.
Assay [11] deals with Acinetobacter baumannii. The experiment in a line: Antibacterial activity against polymyxin-susceptible Acinetobacter baumannii ATCC 17978 clinical isolates assessed as reduction in bacterial growth by broth microdilution method.
The subject of assay [12] is Enterobacter cloacae. As to the kind of experiment: Antibacterial activity against polymyxin-susceptible Enterobacter cloacae FADD1-EC006 clinical isolates assessed as reduction in bacterial growth by broth microdilution method.
The subject of assay [13] is Klebsiella pneumoniae. The experiment in a line: Antibacterial activity against polymyxin-susceptible Klebsiella pneumoniae ATCC 700721 clinical isolates assessed as reduction in bacterial growth by broth microdilution method.
In assay [14] the test system is Klebsiella pneumoniae. The experiment in a line: Antibacterial activity against Carbapenem-resistant Klebsiella pneumoniae FADD1-KP022 clinical isolates assessed as reduction in bacterial growth by broth microdilution method.
Assay [15] relates to Pseudomonas aeruginosa. As to the kind of experiment: Antibacterial activity against polymyxin-susceptible Pseudomonas aeruginosa ATCC 27853 clinical isolates assessed as reduction in bacterial growth by broth microdilution method.
The test system of assay [16] is Acinetobacter baumannii. The experiment in a line: Antibacterial activity against polymyxin-susceptible Acinetobacter baumannii ATCC 19606 clinical isolates assessed as reduction in bacterial growth by broth microdilution method.
For assay [17], the system named is Pseudomonas aeruginosa. The experiment in a line: Antibacterial activity against polymyxin-susceptible Pseudomonas aeruginosa FADD1-PA025 clinical isolates assessed as reduction in bacterial growth by broth microdilution method.

In brackets after ≈: the same amount, converted by molar mass.

As a reminder, the MIC is the lowest concentration found to suppress growth. Consider `CC[C@H](C)CCCCC(=O)N[C@@H](CCN)C(=O)N[C@H](C(=O)N[C@@H](CCN)C(=O)N[C@H]1CCNC(=O)[C@H](CS)NC(=O)[C@H](CCN)NC(=O)[C@H](CCN)NC(=O)[C@H](CC(C)C)NC(=O)[C@@H](Cc2ccccc2)NC(=O)[C@H](CCN)NC1=O)[C@@H](C)O`, for which the MIC in the assay on Klebsiella pneumoniae [1] was found to be 4 µg/mL (≈ 3.32 µM); in the assay with Enterobacter cloacae [2], 16 µg/mL (≈ 13.3 µM); in the assay on Pseudomonas aeruginosa [3], 4 µg/mL (≈ 3.32 µM); in the assay on Klebsiella pneumoniae [4] it was 16 µg/mL (≈ 13.3 µM); in the assay with Pseudomonas aeruginosa [5], 8 µg/mL (≈ 6.64 µM); in the assay with Acinetobacter baumannii [6] it was 32 µg/mL (≈ 26.5 µM). The MIC with Enterobacter cloacae [7] was 16 µg/mL (≈ 13.3 µM); in the assay on Klebsiella pneumoniae [8], 16 µg/mL (≈ 13.3 µM); in the assay on Acinetobacter baumannii [9], 16 µg/mL (≈ 13.3 µM); in the assay on Pseudomonas aeruginosa [10], 8 µg/mL (≈ 6.64 µM); in the assay on Acinetobacter baumannii [11] it was 16 µg/mL (≈ 13.3 µM); with Enterobacter cloacae [12], 16 µg/mL (≈ 13.3 µM). Further, the MIC in the assay on Klebsiella pneumoniae [13] turned out to be 16 µg/mL (≈ 13.3 µM); with Klebsiella pneumoniae [14], 4 µg/mL (≈ 3.32 µM); with Pseudomonas aeruginosa [15] it was 4 µg/mL (≈ 3.32 µM); with Acinetobacter baumannii [16], 16 µg/mL (≈ 13.3 µM); in the assay on Pseudomonas aeruginosa [17] it was 8 µg/mL (≈ 6.64 µM).

As to `CC[C@H](C)CCCCC(=O)N[C@@H](CCN)C(=O)N[C@H](C(=O)N[C@@H](CCN)C(=O)N[C@H]1CCNC(=O)[C@H]([C@@H](C)OC)NC(=O)[C@H](CCN)NC(=O)[C@H](CCN)NC(=O)[C@H](CC(C)C)NC(=O)[C@@H](Cc2ccccc2)NC(=O)[C@H](CCN)NC1=O)[C@@H](C)O`, the minimum inhibitory concentration (MIC) was determined as 8 µg/mL (≈ 6.57 µM) in the assay with Klebsiella pneumoniae [1]; 4 µg/mL (≈ 3.29 µM) in the assay on Enterobacter cloacae [2]; 1 µg/mL (≈ 0.821 µM) with Pseudomonas aeruginosa [3]; 2 µg/mL (≈ 1.64 µM) in the assay with Klebsiella pneumoniae [4]; 16 µg/mL (≈ 13.1 µM) in the assay with Pseudomonas aeruginosa [5]; 8 µg/mL (≈ 6.57 µM) with Acinetobacter baumannii [6]. Besides, the MIC stood at 8 µg/mL (≈ 6.57 µM) with Enterobacter cloacae [7]; 8 µg/mL (≈ 6.57 µM) in the assay on Klebsiella pneumoniae [8]; 4 µg/mL (≈ 3.29 µM) in the assay with Acinetobacter baumannii [9]; 8 µg/mL (≈ 6.57 µM) in the assay with Pseudomonas aeruginosa [10]; 8 µg/mL (≈ 6.57 µM) in the assay with Acinetobacter baumannii [11]; 32 µg/mL (≈ 26.3 µM) with Enterobacter cloacae [12]. Besides, the minimal inhibitory concentration (MIC) came to 8 µg/mL (≈ 6.57 µM) with Klebsiella pneumoniae [13]; 1 µg/mL (≈ 0.821 µM) in the assay with Klebsiella pneumoniae [14]; 1 µg/mL (≈ 0.821 µM) in the assay with Pseudomonas aeruginosa [15]; 16 µg/mL (≈ 13.1 µM) in the assay on Acinetobacter baumannii [16]; 2 µg/mL (≈ 1.64 µM) in the assay on Pseudomonas aeruginosa [17].

In the case of `CC[C@H](C)CCCCC(=O)N[C@@H](CCN)C(=O)N[C@H](C(=O)N[C@@H](CCN)C(=O)N[C@H]1CCNC(=O)[C@H](CCO)NC(=O)[C@H](CCN)NC(=O)[C@H](CCN)NC(=O)[C@H](CC(C)C)NC(=O)[C@@H](Cc2ccccc2)NC(=O)[C@H](CCN)NC1=O)[C@@H](C)O`, the MIC with Klebsiella pneumoniae [1] was determined as 2 µg/mL (≈ 1.66 µM); in the assay on Enterobacter cloacae [2] it was 2 µg/mL (≈ 1.66 µM); with Pseudomonas aeruginosa [3], 0.5 µg/mL (≈ 0.415 µM); in the assay on Klebsiella pneumoniae [4] it was 2 µg/mL (≈ 1.66 µM); in the assay on Pseudomonas aeruginosa [5] it was 8 µg/mL (≈ 6.65 µM); with Acinetobacter baumannii [6] it was 32 µg/mL (≈ 26.6 µM). The MIC with Enterobacter cloacae [7] was 8 µg/mL (≈ 6.65 µM); with Klebsiella pneumoniae [8] it was 4 µg/mL (≈ 3.32 µM); in the assay on Acinetobacter baumannii [9] it was 4 µg/mL (≈ 3.32 µM); in the assay with Pseudomonas aeruginosa [10], 32 µg/mL (≈ 26.6 µM); in the assay on Acinetobacter baumannii [11], 2 µg/mL (≈ 1.66 µM); with Enterobacter cloacae [12] it was above 32 µg/mL. The minimal inhibitory concentration (MIC) was 2 µg/mL (≈ 1.66 µM) with Klebsiella pneumoniae [13]; 0.5 µg/mL (≈ 0.415 µM) with Klebsiella pneumoniae [14]; 4 µg/mL (≈ 3.32 µM) in the assay with Pseudomonas aeruginosa [15]; above 32 µg/mL with Acinetobacter baumannii [16]; 2 µg/mL (≈ 1.66 µM) with Pseudomonas aeruginosa [17].

For the compound `CC[C@H](C)CCCCC(=O)N[C@@H](CCN)C(=O)N[C@H](C(=O)N[C@@H](CCN)C(=O)N[C@H]1CCNC(=O)[C@H](C(C)(C)O)NC(=O)[C@H](CCN)NC(=O)[C@H](CCN)NC(=O)[C@H](CC(C)C)NC(=O)[C@@H](Cc2ccccc2)NC(=O)[C@H](CCN)NC1=O)[C@@H](C)O`, the MIC in the assay with Klebsiella pneumoniae [1] came to 1 µg/mL (≈ 0.821 µM); in the assay on Enterobacter cloacae [2], 4 µg/mL (≈ 3.29 µM); with Pseudomonas aeruginosa [3] it was 1 µg/mL (≈ 0.821 µM); in the assay with Klebsiella pneumoniae [4], 2 µg/mL (≈ 1.64 µM); with Pseudomonas aeruginosa [5] it was 8 µg/mL (≈ 6.57 µM); in the assay on Acinetobacter baumannii [6], 8 µg/mL (≈ 6.57 µM). Also, the MIC in the assay with Enterobacter cloacae [7] is 16 µg/mL (≈ 13.1 µM); in the assay with Klebsiella pneumoniae [8] it was 1 µg/mL (≈ 0.821 µM); in the assay with Acinetobacter baumannii [9] it was 8 µg/mL (≈ 6.57 µM); with Pseudomonas aeruginosa [10] it was 2 µg/mL (≈ 1.64 µM); with Acinetobacter baumannii [11], 8 µg/mL (≈ 6.57 µM); with Enterobacter cloacae [12] it was 16 µg/mL (≈ 13.1 µM). Besides, the MIC in the assay with Klebsiella pneumoniae [13] was 4 µg/mL (≈ 3.29 µM); with Klebsiella pneumoniae [14], 1 µg/mL (≈ 0.821 µM); in the assay with Pseudomonas aeruginosa [15] it was 1 µg/mL (≈ 0.821 µM); with Acinetobacter baumannii [16], 8 µg/mL (≈ 6.57 µM); with Pseudomonas aeruginosa [17], 2 µg/mL (≈ 1.64 µM).

On to `CC[C@H](C)CCCCC(=O)N[C@@H](CCN)C(=O)N[C@H](C(=O)N[C@@H](CCN)C(=O)N[C@H]1CCNC(=O)CNC(=O)[C@H](CCN)NC(=O)[C@H](CCN)NC(=O)[C@H](CC(C)C)NC(=O)[C@@H](Cc2ccccc2)NC(=O)[C@H](CCN)NC1=O)[C@@H](C)O`, for which the MIC in the assay with Klebsiella pneumoniae [1] is 0.5 µg/mL (≈ 0.431 µM); with Enterobacter cloacae [2] it was 4 µg/mL (≈ 3.45 µM); in the assay on Pseudomonas aeruginosa [3], 0.5 µg/mL (≈ 0.431 µM); with Klebsiella pneumoniae [4], 4 µg/mL (≈ 3.45 µM); in the assay on Pseudomonas aeruginosa [5], 8 µg/mL (≈ 6.9 µM); in the assay on Acinetobacter baumannii [6] it was above 32 µg/mL. In addition, the MIC is 4 µg/mL (≈ 3.45 µM) with Enterobacter cloacae [7]; above 32 µg/mL in the assay on Klebsiella pneumoniae [8]; 32 µg/mL (≈ 27.6 µM) in the assay with Acinetobacter baumannii [9]; 1 µg/mL (≈ 0.862 µM) with Pseudomonas aeruginosa [10]; 4 µg/mL (≈ 3.45 µM) in the assay on Acinetobacter baumannii [11]; 4 µg/mL (≈ 3.45 µM) in the assay on Enterobacter cloacae [12]. Further, the MIC in the assay on Klebsiella pneumoniae [13] is 8 µg/mL (≈ 6.9 µM); with Klebsiella pneumoniae [14] it was 1 µg/mL (≈ 0.862 µM); in the assay with Pseudomonas aeruginosa [15] it was 0.5 µg/mL (≈ 0.431 µM); in the assay with Acinetobacter baumannii [16], above 32 µg/mL; in the assay with Pseudomonas aeruginosa [17], 2 µg/mL (≈ 1.72 µM).

The record behind these values is ChEMBL document CHEMBL5316337, “Critical Role of Position 10 Residue in the Polymyxin Antimicrobial Activity” (J Med Chem, 2023).
